Laboratory results reported in the supplement of paper PMC10307832.

Experiments:
Assay in all cases: relative viability (nuclei count vs DMSO), 5 days (fraction); higher = more cells survive
CUDC-101 + Dasatinib = compound: C#Cc1cccc(Nc2ncnc3cc(OC)c(OCCCCCCC(=O)NO)cc23)c1 [CUDC-101] + Cc1nc(Nc2ncc(C(=O)Nc3c(C)cccc3Cl)s2)cc(N2CCN(CCO)CC2)n1 [Dasatinib] (partner 0.075 µM)
Summary of the method: (§1)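 Values are medians from duplicate plates. Each reflects relative viability, defined as the nuclei count of treated wells over that of vehicle wells. Lung cancer cell lines in 1536-well plates were pin-tool dosed one day after seeding with one drug alone or with a fixed anchor-drug dose plus five library-drug doses (not always all listed) in √10 steps, then fixed, stained and imaged at 4× after 5 days.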

CUDC-101 + Crizotinib = compound: C#Cc1cccc(Nc2ncnc3cc(OC)c(OCCCCCCC(=O)NO)cc23)c1 [CUDC-101] + C[C@@H](Oc1cc(-c2cnn(C3CCNCC3)c2)cnc1N)c1c(Cl)ccc(F)c1Cl [Crizotinib] (partner 1 µM)
Summary of the method: as §1

CUDC-101 + Alpelisib = compound: C#Cc1cccc(Nc2ncnc3cc(OC)c(OCCCCCCC(=O)NO)cc23)c1 [CUDC-101] + Cc1nc(NC(=O)N2CCC[C@H]2C(N)=O)sc1-c1ccnc(C(C)(C)C(F)(F)F)c1 [Alpelisib] (partner 2 µM)
Summary of the method: as §1

Vandetanib + Pictilisib = compound: COc1cc2/c(=N/c3ccc(Br)cc3F)nc[nH]c2cc1OCC1CCN(C)CC1 [Vandetanib] + CS(=O)(=O)N1CCN(Cc2cc3nc(-c4cccc5[nH]ncc45)nc(N4CCOCC4)c3s2)CC1 [Pictilisib] (partner 1 µM)
Summary of the method: as §1

Cell Line | relative viability (CUDC-101 + Dasatinib; first compound 0.01 µM) | relative viability (CUDC-101 + Dasatinib; first compound 0.03162 µM) | relative viability (CUDC-101 + Dasatinib; first compound 0.1 µM) | relative viability (CUDC-101 + Dasatinib; first compound 0.3162 µM) | relative viability (CUDC-101 + Dasatinib; first compound 1 µM) | relative viability (CUDC-101 + Crizotinib; first compound 0.01 µM) | relative viability (CUDC-101 + Crizotinib; first compound 0.03162 µM) | relative viability (CUDC-101 + Crizotinib; first compound 0.1 µM) | relative viability (CUDC-101 + Crizotinib; first compound 0.3162 µM) | relative viability (CUDC-101 + Crizotinib; first compound 1 µM) | relative viability (CUDC-101 + Alpelisib; first compound 0.01 µM) | relative viability (CUDC-101 + Alpelisib; first compound 0.03162 µM) | relative viability (CUDC-101 + Alpelisib; first compound 0.1 µM) | relative viability (CUDC-101 + Alpelisib; first compound 0.3162 µM) | relative viability (CUDC-101 + Alpelisib; first compound 1 µM) | relative viability (Vandetanib + Pictilisib; first compound 0.02 µM) | relative viability (Vandetanib + Pictilisib; first compound 0.06325 µM) | relative viability (Vandetanib + Pictilisib; first compound 0.2 µM) | relative viability (Vandetanib + Pictilisib; first compound 0.6325 µM) | relative viability (Vandetanib + Pictilisib; first compound 2 µM)
NCI-H1437 | 0.384 | 0.364 | 0.457 | 0.432 | 0.402 | 1.13 | 0.862 | 0.963 | 0.941 | 0.916 | 1.04 | 0.886 | 0.988 | 0.983 | 0.679 | 0.463 | 0.419 | 0.432 | 0.357 | 0.481
NCI-H1563 | 0.439 | 0.465 | 0.448 | 0.488 | 0.429 | 0.721 | 0.874 | 0.891 | 0.791 | 0.68 | 0.919 | 0.815 | 0.925 | 0.942 | 0.882 | 0.62 | 0.707 | 0.623 | 0.656 | 0.657
NCI-H1651 | 0.378 | 0.335 | 0.434 | 0.39 | 0.384 | 0.91 | 0.803 | 0.91 | 0.934 | 0.813 | 1.03 | 0.772 | 1 | 0.93 | 0.817 | 0.621 | 0.519 | 0.478 | 0.528 | 0.374
NCI-H1666 | 0.903 | 0.786 | 0.814 | 0.911 | 0.795 | 0.91 | 0.969 | 1.15 | 1.09 | 0.791 | 0.958 | 0.949 | 1.05 | 0.974 | 0.498 | 0.343 | 0.446 | 0.498 | 0.451 | 0.322
NCI-H1734 | 0.502 | 0.43 | 0.461 | 0.536 | 0.376 | 0.778 | 0.699 | 0.566 | 0.583 | 0.397 | 0.754 | 0.654 | 0.773 | 0.813 | 0.596 | 0.43 | 0.435 | 0.479 | 0.449 | 0.43
NCI-H1755 | 0.4 | 0.376 | 0.462 | 0.519 | 0.377 | 0.81 | 0.896 | 0.828 | 0.942 | 0.743 | 0.96 | 0.944 | 0.956 | 0.972 | 0.844 | 0.427 | 0.381 | 0.254 | 0.426 | 0.369
NCI-H1792 | 0.764 | 0.683 | 0.856 | 0.819 | 0.691 | 0.971 | 0.944 | 0.942 | 1.04 | 0.953 | 0.702 | 0.57 | 0.695 | 0.734 | 0.645 | 0.273 | 0.288 | 0.303 | 0.318 | 0.235
NCI-H1915 | 0.301 | 0.292 | 0.293 | 0.292 | 0.24 | 0.982 | 0.941 | 0.889 | 0.837 | 0.627 | 1.07 | 0.997 | 1.11 | 1.04 | 0.788 | 0.858 | 0.901 | 0.946 | 0.944 | 0.888
NCI-H1944 | 0.215 | 0.184 | 0.201 | 0.196 | 0.196 | 1.07 | 1.09 | 0.954 | 0.918 | 0.491 | 0.819 | 0.682 | 0.799 | 0.756 | 0.514 | 0.328 | 0.345 | 0.339 | 0.345 | 0.334
NCI-H1975 | 0.287 | 0.373 | 0.315 | 0.413 | 0.331 | 1.05 | 1.02 | 0.964 | 1.1 | 0.872 | 0.714 | 0.634 | 0.686 | 0.673 | 0.538 | 0.285 | 0.26 | 0.296 | 0.27 | 0.301
NCI-H1993 | 0.594 | 0.666 | 0.686 | 0.571 | 0.541 | 0.93 | 0.783 | 0.766 | 0.754 | 0.77 | 0.742 | 0.751 | 0.766 | 0.671 | 0.639 | 0.832 | 0.727 | 0.64 | 0.85 | 0.723
NCI-H2009 | 0.321 | 0.281 | 0.396 | 0.443 | 0.338 | 1.02 | 0.992 | 1.11 | 0.991 | 1.03 | 1.13 | 1.1 | 1.14 | 1.07 | 1.04 | 0.78 | 0.669 | 0.79 | 0.828 | 0.81
NCI-H2023 | 0.564 | 0.635 | 0.616 | 0.748 | 0.461 | 0.623 | 0.602 | 0.622 | 0.628 | 0.558 | 0.552 | 0.581 | 0.564 | 0.663 | 0.565 | 0.218 | 0.201 | 0.261 | 0.202 | 0.279
